Data from patent US10550101B2, “Crystalline forms of mesylate salt of pyridinyl amino pyrimidine derivative, preparation methods therefor, and applications thereof” (SHANGHAI ALLIST PHARMACEUTICAL AND MEDICAL TECHNOLOGY …, priority 2016, dated 2020).
Converted amounts (≈) assume the structure as drawn. Where a name gives a salt, the structure may show the parent alone. Read-outs that look alike come from different tables or passages of the source.

Tests used:
[1] = Solubility test under different pH buffering solutions; format: physicochemical; settings: for Solubility: 24 h; for solubilities compared with the compound of formula (I) of Example 1: solvent pH values 1.0, 4.5 and 6.8, conclusion in words
Experimental: The solubilities of the crystal forms of the mesylate salt of the compound of formula (I) may be measured according to the following method: • Each substance is weighed in an appropriate amount and placed in a brown flask. Different solvents are added. The mixtures are ultrasonically treated for 20 seconds. After the mixtures are uniformly dispersed, the mixtures are shaked at 25° C., 200 rpm for 24 h, then removed, and separated by centrifugation at 12000 rpm for 10 mins. The supernatants are removed by suction and diluted to a certain fold with the corresponding solvent. Then, the concentrations of the resulting solutions are determined by HPLC and their pH values are measured.
The compound of formula (I) of Example 1, Form I of the mesylate salt of the compound of formula (I), and Form II of the mesylate salt of the compound of formula (I) were investigated for the solubilities under different pH buffering solutions.
Test method: Each substance was weighed in an appropriate amount and placed in a brown flask. Different solvents were added. The mixtures were ultrasonically treated for 20 seconds. After the mixtures were uniformly dispersed, the mixtures were shaked at 25° C., 200 rpm for 24 h, then removed, and separated by centrifugation at 12000 rpm for 10 mins. The supernatants were removed by suction and diluted to a certain folds with the corresponding solvent. Then, the concentrations of the resulting solutions were determined by HPLC and their pH values were measured.

[2] = Drug absorption experiment in SD rats, intravenous administration; format: in vivo, SD rats (Sprague Dawley rats); settings: for AUC(0-t) / Cmax / half-life: plasma
Experimental: The determination method for the absolute bioavailability of the intragastric administration of the crystal forms of the mesylate salt of the compound of formula (I) is as follows: • For intravenous administration: Healthy SD rats are randomly grouped. The tested substance is administered in a certain dosage D through the intravenous administration. The blood samples are collected through the retrobulbar venous plexus before the administration and 5 min, 15 min, 0.5 h, 1.0 h, 2.0 h, 4.0 h, 8.0 h, 12 h and 24 h after the administration, and separated to give plasmas. The concentration of the drug in plasma is determined with the liquid chromatography-tandem mass spectrometry method to give a drug concentration-time curve. • For intragastric administration: Healthy SD rats are randomly grouped. The tested substance is administered in a certain dosage D through the intragastric administration. The intravenous blood samples are collected through the rat's retrobulbar venous plexus before the administration and 0.5, 1.0, 2.0, 4.0, 6.0, 8.0, 10, 12 and 24 h after the administration, and separated to give plasmas. The concentration of the drug in plasma is determined with the liquid chromatography-tandem mass spectrometry method to give a drug concentration-time curve.
For intravenous administration: 20 healthy (half male and half female) SD rats with 200-280 g body weight, provided by Shanghai Sippr-BK laboratory animal Co. Ltd., were assigned randomly to 5 groups. […] 0.2 ml of the intravenous blood samples were collected through the rat's retrobulbar venous plexus before the administration and 5 min, 15 min, 0.5 h, 1.0 h, 2.0 h, 4.0 h, 8.0 h, 12 h and 24 h after the administration, and separated to give plasmas.
The concentration of the drug in plasma was determined with the liquid chromatography-tandem mass spectrometry method to give a drug concentration-time curve.
T1/2: elimination half-life; Cmax: maximum drug concentration in plasma; AUC0-t: area under drug concentration-time curve.

[3] = Drug absorption experiment in SD rats, intragastric administration (incl. absolute bioavailability); format: in vivo, SD rats (Sprague Dawley rats); settings: for F (absolute bioavailability): intragastric 10 mg/kg vs intravenous 2.5 mg/kg; for F (absolute bioavailability) / bioavailability: from AUC0-t after dosage calibration; for bioavailability: read-out: F (absolute bioavailability)
Experimental: The determination method for the absolute bioavailability of the intragastric administration of the crystal forms of the mesylate salt of the compound of formula (I) is as follows: • For intravenous administration: Healthy SD rats are randomly grouped. The tested substance is administered in a certain dosage D through the intravenous administration. The blood samples are collected through the retrobulbar venous plexus before the administration and 5 min, 15 min, 0.5 h, 1.0 h, 2.0 h, 4.0 h, 8.0 h, 12 h and 24 h after the administration, and separated to give plasmas. […] The tested substance is administered in a certain dosage D through the intragastric administration.
After dosage calibration, the absolute bioavailability F is calculated by the area under the drug concentration-time curve (AUC0-t). The calculation equation is as follows: F=(AUCintragastric×Dintravenous)/(AUCintravenous×Dintragastric)×100%.
For intragastric administration: 20 healthy (half male and half female) SD rats with 200-280 g body weight, provided by Shanghai Sippr-BK laboratory animal Co. Ltd., were assigned randomly to 5 groups.
After dosage calibration, the absolute bioavailability F was obtained by calculation of AUC0-t. The calculation equation was as follows: F=(AUCintragastric×Dintravenous)/(AUCintravenous×Dintragastric)×100%. The obtained absolute bioavailability F data are shown in the above table 2.

[4] = Acetate buffering solution at pH = 4.5, 25° C.
[5] = Phosphate buffering solution at pH = 6.8, 25° C.
[6] = intragastric, dosage 10 mg/kg, plasma

C=CC(=O)Nc1cc(Nc2nccc(-c3cn(C)c4ccccc34)n2)c(OCC(F)(F)F)nc1N(C)CCN(C)C [Example 1, N-{2-{[2-(dimethylamino)ethyl](methyl)amino}-6-(2,2,2-trifluoroethoxy)-5-{[4-(1-methyl-1H-indol-3-yl)pyrimidin-2-yl]amino}pyridin-3-yl}acrylamide]
Solubility ([1]; 0.1N HCl, 25° C.): >30 mg/mL
Solubility [1, 4]: 0.62 mg/mL (≈ 1090 µM)
Solubility [1, 5]: 0.0003 mg/mL (≈ 0.528 µM)

C=CC(=O)Nc1cc(Nc2nccc(-c3cn(C)c4ccccc34)n2)c(OCC(F)(F)F)nc1N(C)CCN(C)C [Form II, Form II of the Mesylate Salt of N-{2-{[2-(dimethylamino)ethyl](methyl)amino}-6-(2,2,2-trifluoroethoxy)-5-{[4-(1-methyl-1H-indol-3-yl)pyrimidin-2-yl]amino}pyridin-3-yl}acrylamide]
T1/2 ([2]; dosage 2.5 mg/kg, elimination half-life): 4.83 h
AUC(0-t) ([2]; dosage 2.5 mg/kg): 362.0 ng·h/mL
Cmax ([2]; dosage 2.5 mg/kg): 125.4 ng/mL
F (absolute bioavailability) [3]: 39.1%
AUC(0-t) [3, 6]: 566.3 ng·h/mL
Cmax [3, 6]: 36.7 ng/mL
Solubility ([1]; 0.1N HCl, 25° C.): >100 mg/mL
Solubility [1, 4]: 61.14 mg/mL
Solubility [1, 5]: 0.02 mg/mL
solubilities compared with the compound of formula (I) of Example 1 [1]: remarkably better

C=CC(=O)Nc1cc(Nc2nccc(-c3cn(C)c4ccccc34)n2)c(OC(C)C)nc1N(C)CCN(C)C [Comparative Example 1, reference compound]
half-life ([2]; both sexes, Sprague-Dawley, rat, iv, 3 mg/kg, dosage 3.0 mg/kg, elimination half-life): 2.72 h
AUC(0-t) ([2]; both sexes, Sprague-Dawley, rat, iv, 3 mg/kg, dosage 3.0 mg/kg, read-out: AUC0-t): 438 ng·h/mL
Cmax ([2]; both sexes, Sprague-Dawley, rat, iv, 3 mg/kg, dosage 3.0 mg/kg, read-out: Cmax): 328 ng/mL
bioavailability ([3]; both sexes, Sprague-Dawley, rat, plasma, po, 6 mg/kg, intragastric 6 mg/kg vs intravenous 3.0 mg/kg): 8.9%

C=CC(=O)Nc1cc(Nc2ncc(Cl)c(-c3cn(C)c4ccccc34)n2)c(OC(C)C)nc1N(C)CCN(C)C [Comparative Example 2, reference compound]
half-life ([2]; both sexes, Sprague-Dawley, rat, iv, 4 mg/kg, dosage 4.0 mg/kg, elimination half-life): 1.71 h
AUC(0-t) ([2]; both sexes, Sprague-Dawley, rat, iv, 4 mg/kg, dosage 4.0 mg/kg, read-out: AUC0-t): 811 ng·h/mL
Cmax ([2]; both sexes, Sprague-Dawley, rat, iv, 4 mg/kg, dosage 4.0 mg/kg, read-out: Cmax): 630 ng/mL
bioavailability ([3]; both sexes, Sprague-Dawley, rat, plasma, po, 10 mg/kg, intragastric 10 mg/kg vs intravenous 4.0 mg/kg): 8.5%

C=CC(=O)Nc1cc(Nc2nccc(-c3cn(C)c4ccccc34)n2)c(OCC(F)(F)F)nc1N(C)CCN(C)C [Form I, Form I of the Mesylate Salt of N-{2-{[2-(dimethylamino)ethyl](methyl)amino}-6-(2,2,2-trifluoroethoxy)-5-{[4-(1-methyl-1H-indol-3-yl)pyrimidin-2-yl]amino}pyridin-3-yl}acrylamide]
half-life ([2]; both sexes, Sprague-Dawley, rat, iv, 2.5 mg/kg, dosage 2.5 mg/kg, elimination half-life): 4.73 h
AUC(0-t) ([2]; both sexes, Sprague-Dawley, rat, iv, 2.5 mg/kg, dosage 2.5 mg/kg, read-out: AUC0-t): 308 ng·h/mL
Cmax ([2]; both sexes, Sprague-Dawley, rat, iv, 2.5 mg/kg, dosage 2.5 mg/kg, read-out: Cmax): 105 ng/mL
half-life ([3]; both sexes, Sprague-Dawley, rat, plasma, po, 10 mg/kg, intragastric, dosage 10 mg/kg, elimination half-life): 7.98 h
AUC(0-t) ([3]; both sexes, Sprague-Dawley, rat, plasma, po, 10 mg/kg, intragastric, dosage 10 mg/kg, plasma, read-out: AUC0-t): 613 ng·h/mL
Cmax ([3]; both sexes, Sprague-Dawley, rat, plasma, po, 10 mg/kg, intragastric, dosage 10 mg/kg, plasma, read-out: Cmax): 45.3 ng/mL
F (absolute bioavailability) [3]: 49.8%
Solubility ([1]; 0.1N HCl, 25° C.): >100 mg/mL
Solubility [1, 4]: 29.05 mg/mL
Solubility [1, 5]: 0.02 mg/mL
solubilities compared with the compound of formula (I) of Example 1 [1]: remarkably better
